# Test results taken from patent US12018024B2, “Compounds and compositions for the treatment of cryptosporidiosis” (Novartis AG, priority 2020, dated 2024).
# pIC50: −log10 of the molar value.
# Columns and labels:
# Cryptosporidium parvum = test: Cytopathic effect (CPE) based assay, C. parvum-infected HCT-8 cells; type: cell-based; conditions: HCT-8, 48 h, read-out: (b) C.p.* CPE EC50 (μM)
# Method: Human ileocecal colorectal adenocarcinoma cells (HCT-8 [HRT-18] ATCC, CCL-34) were maintained in T-175 flasks (Corning, 431080) in complete growth medium (RPMI-1640 medium (Gibco, 11875) supplemented with 10% heat-inactivated horse serum (Gibco, 26050), 1× MEM non-essential amino acids (Gibco, 11140), 10 mM HEPES (Gibco, 15630), 100 units/mL penicillin, and 100 units/mL streptomycin) at 37° C. and 5% CO2 in a humidified incubator. Cultures were passaged twice weekly using 10 mL of 1× Phosphate-Buffered Saline (PBS) without Ca^2+ and Mg^2+ (Gibco, 20012) for washing and 3-5 mL per T-175 flask of TrypLE Express Enzyme (Gibco, 12604) for dissociation of adherent cells.
# Cryptosporidium parvum oocysts purchased from the Sterling Laboratory, University of Arizona (Iowa isolate) were purified from infected calf feces using discontinuous sucrose and cesium chloride centrifugation gradients and stored in PBS solution containing 0.01% Tween 20, 100 units/mL penicillin and 100 units/mL gentamicin.
# Excystaion and infection: Excystation and infection protocols were developed following established methods with some modifications (Gut & Nelson, 1999, Upton et al., 1995, Bessoff et al., 2013). Briefly, oocysts were primed in 1 mL of 10 mM hydrochloric acid in 1× Hank's Balanced Salt Solution (HBSS) (Gibco, 14025) for 10 minutes with agitation at 1000 rpm, 37° C. on an Eppendorf thermomixer, then washed twice with 1 mL of room temperature non-acidic 1× HBSS by centrifugation at 13,000 rpm for 3 minutes at 25° C. Primed oocysts were further excysted at a concentration of 1×10^6 oocysts/μL in parasite infection medium consisting of a pre-warmed and pre-gassed 1:1 formulation of Leibovitz's L-15 medium (Gibco, 11415) and UltraCULTURE medium (Lonza, 12-725F) supplemented with 2 mM sodium taurocholate (Sigma, 86339-1), 10% heat-inactivated horse serum, and 200 μM L-ascorbic acid (Sigma, 95210) at 25° C. for 10 minutes. HCT-8 monolayer cells were infected with excysted cryptosporidium at a specified multiplicity of infection (MOI). All dilutions for subsequent assays were performed in parasite infection medium without sodium taurocholate. Pre-excysted oocysts were enumerated microscopically using a C-Chip disposable hemocytometer (NanoEnTek, DHC-N01).
# Compound and assay plate preparation: Compound powders were dissolved in neat DMSO (Fisher, D4121) to 10 mM and stored at 4° C. prior to dilution into source plates. Dilutions were carried out using a Microlab STAR liquid handler (Hamilton) to obtain compound source plates containing the ten-point or eight-point three fold dilutions starting from 10 mM in duplicates. Source plates were stored at 4° C. prior to spotting into assay plates. Before administration, all compound source plates were equilibrated to room temperature. A specified volume of compounds from source plate were spotted to assay plate using an Echo Acoustic liquid handler (LABCYTE, 550) so that the final DMSO concentration was less than 0.5%. Each assay plate a specified number of DMSO-treated negative control wells and a well-studied potent active compound at 100 nM as positive control. As a quality control, all positive and negative-control wells were used to calculate a Z′-value and signal to noise ratio (S:N) for each plate.
# Cryptosporidium spp are obligate-intracellular parasites that infect intestinal epithelial cells and the host cell is killed upon parasite egress. […] The loss of epithelial cells is due to both rapid parasite invasion/multiplication/egress and also pro-inflammatory immune response (Adams et al., 1994, Griffiths et al., 1994). We have observed a consistent cytopathic effect (CPE) in HCT-8 cells with C. spp infection the loss of viability of the host cells using CellTiter-Glo reagent.
# Confluent HCT-8 cells in T-175 flasks were directly infected with excysted oocysts at an MOI (host to parasite) of 1:2 for C. parvum and 1:4 for C. hominis. […]
# C. parvum PI(4)K = C. parvum PI(4)K (Cryptosporidium parvum, UniProt Q5CVD3); test: CpPI(4)K enzymatic assay (Transcreener ADP2 FP); type: biochemical
# Chain of C. parvum PI(4)K (Q5CVD3 entry or part of it): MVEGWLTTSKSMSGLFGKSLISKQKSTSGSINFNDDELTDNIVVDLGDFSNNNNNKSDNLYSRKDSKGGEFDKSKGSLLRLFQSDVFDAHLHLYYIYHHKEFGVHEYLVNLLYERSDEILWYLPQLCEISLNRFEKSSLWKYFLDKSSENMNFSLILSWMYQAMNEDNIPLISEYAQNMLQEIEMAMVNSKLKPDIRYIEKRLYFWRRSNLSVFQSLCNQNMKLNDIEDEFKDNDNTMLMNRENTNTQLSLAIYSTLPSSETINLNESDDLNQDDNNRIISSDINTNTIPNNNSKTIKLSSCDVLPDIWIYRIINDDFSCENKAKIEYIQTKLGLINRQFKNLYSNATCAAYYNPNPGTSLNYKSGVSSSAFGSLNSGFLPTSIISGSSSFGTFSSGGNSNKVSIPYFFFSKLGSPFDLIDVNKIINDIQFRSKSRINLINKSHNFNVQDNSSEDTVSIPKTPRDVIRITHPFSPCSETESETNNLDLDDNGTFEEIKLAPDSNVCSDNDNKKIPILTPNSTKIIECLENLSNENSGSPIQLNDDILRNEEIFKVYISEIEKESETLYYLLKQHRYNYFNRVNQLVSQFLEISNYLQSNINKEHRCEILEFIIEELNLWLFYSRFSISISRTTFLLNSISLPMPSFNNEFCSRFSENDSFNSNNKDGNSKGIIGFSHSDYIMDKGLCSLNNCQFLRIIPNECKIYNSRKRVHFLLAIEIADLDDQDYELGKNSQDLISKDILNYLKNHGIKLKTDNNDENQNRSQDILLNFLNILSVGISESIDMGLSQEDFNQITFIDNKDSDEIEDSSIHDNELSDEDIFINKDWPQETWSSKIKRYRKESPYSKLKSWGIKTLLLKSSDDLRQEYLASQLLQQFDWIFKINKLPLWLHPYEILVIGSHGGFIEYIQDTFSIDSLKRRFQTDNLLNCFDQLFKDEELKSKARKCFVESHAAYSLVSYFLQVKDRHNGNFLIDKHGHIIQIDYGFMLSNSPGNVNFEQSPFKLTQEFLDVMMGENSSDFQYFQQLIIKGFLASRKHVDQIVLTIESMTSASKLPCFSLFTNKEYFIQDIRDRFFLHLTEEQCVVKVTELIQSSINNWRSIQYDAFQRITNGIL
# Description: Baculovirus expression and purification of C. parvum phosphatidylinositol 4-kinase: The full-length coding sequence of C. parvum PI(4)K (cgd8_4500, 1114 amino acids) was codon-optimized for baculovirus expression, synthesized and cloned into pFastBac-HTb (Invitrogen 10584-027) in frame with the amino-terminal polyhistidine tag using the BamHI and HindIII restriction sites. Recombinant pFastBacHTb-CpPI(4)K bacmid clones were generated by site-specific transposition in E. coli DH10Bac (Invitrogen 10361-012). The bacmid sequence was confirmed by direct DNA sequencing to confirm a lack of mutations across the whole gene. The subsequent steps for bacmid isolation, transfection and selection of the recombinant viruses were performed according to the manufacturer's protocol (Bac-to-Bac system #10359, Invitrogen).
# SF9 cells, cultured in […] serum-free medium, were transfected with recombinant baculovirus at 1/200 (v/v) and incubated at 27° C. for 72 h. The pellets were collected after centrifugation and re-suspended in cell lysis buffer (20 mM Tris-HCl, pH 7.5, 300 mM NaCl, 1 mM DTT, 20 mM imidazole, 0.01% Triton X-100 and 1× complete protease inhibitor cocktail without EDTA (Roche Diagnostics 04693116001)). The cell suspension was lysed by sonication and the clarified supernatant was loaded onto a 1 ml HisTrap affinity column (GE Healthcare) pre-equilibrated with buffer A (20 mM Tris-HCl, pH 7.5, 300 mM NaCl, 1 mM DTT, 20 mM Imidazole, and 1× complete protease inhibitor cocktail without EDTA). The column was washed with buffer B (buffer A containing 45 mM imidazole) and the bound protein of interest was eluted with buffer C (buffer A with 90 mM imidazole). The fractions containing CpPI(4)K were pooled, concentrated using Amicon Ultra-15 and purified by a gel-filtration column (Hi-Load 26/60 Superdex 200, GE Healthcare) equilibrated with 20 mM Tris, pH 7.5, 300 mM NaCl, 1 mM DTT and 1× protease inhibitor cocktail without EDTA. The concentrations of the purified protein (Mw 132.39 kda) was determined by using the protein molar extinction coefficient (ε280 nm=133,810 M^−1 cm^−1). Aliquots were flash frozen in liquid nitrogen and immediately stored at −80° C.
# PI(4)K enzymatic Assay The CpPI(4)K enzymatic assay was performed as described earlier with a some modifications (McNamara et al., 2013). Briefly, L-α-phosphatidylinositol (Avanti Polar Lipid 840046), dissolved in 3% n-octylglucoside (Roche Diagnostics 10634425001), was used as the lipid substrate for the PI(4)K activity assay. CpPI(4)K was assayed using Transcreener ADP2 FP detection kit (BellBrook 3010) in a black, solid 384-well plate (Corning 3575). The final assay volume was 10 μl and contained 3 nM of the respective CpPI(4)K construct in 10 mM Tris, pH 7.5, 1 mM DTT, 3 μM ATP, 5 mM Mn2+, 0.05% Triton X-100 and 10 μM phosphatidylinositol/octylglucoside. The enzyme reaction was performed for 50 minutes at room temperature and was stopped by adding 10 μl of detection mix containing 1× stop buffer (50 mM HEPES, pH7.5, 400 mM NaCl, 20 mM EDTA, and 0.02% Brij-35), 2 nM AMP Alexa Fluor 633 tracer, and 20 μg ml^−1 ADP antibody. Fluorescence polarization measurements were performed on the Infinite M1000 plate reader (Tecan) with λex=635 nm and λem=680 nm (20-nm bandwidth). IC50 values were calculated using Graphpad Prism software.
# H.s. PI(4)K = H.s. PI(4)K (Homo sapiens, UniProt Q9UBF8); test: H.s. PI(4)K IC50; type: biochemical; conditions: read-out: (d) H.s.* PI(4)K IC50
# Chain of H.s. PI(4)K (Q9UBF8 2-816 limits assumed): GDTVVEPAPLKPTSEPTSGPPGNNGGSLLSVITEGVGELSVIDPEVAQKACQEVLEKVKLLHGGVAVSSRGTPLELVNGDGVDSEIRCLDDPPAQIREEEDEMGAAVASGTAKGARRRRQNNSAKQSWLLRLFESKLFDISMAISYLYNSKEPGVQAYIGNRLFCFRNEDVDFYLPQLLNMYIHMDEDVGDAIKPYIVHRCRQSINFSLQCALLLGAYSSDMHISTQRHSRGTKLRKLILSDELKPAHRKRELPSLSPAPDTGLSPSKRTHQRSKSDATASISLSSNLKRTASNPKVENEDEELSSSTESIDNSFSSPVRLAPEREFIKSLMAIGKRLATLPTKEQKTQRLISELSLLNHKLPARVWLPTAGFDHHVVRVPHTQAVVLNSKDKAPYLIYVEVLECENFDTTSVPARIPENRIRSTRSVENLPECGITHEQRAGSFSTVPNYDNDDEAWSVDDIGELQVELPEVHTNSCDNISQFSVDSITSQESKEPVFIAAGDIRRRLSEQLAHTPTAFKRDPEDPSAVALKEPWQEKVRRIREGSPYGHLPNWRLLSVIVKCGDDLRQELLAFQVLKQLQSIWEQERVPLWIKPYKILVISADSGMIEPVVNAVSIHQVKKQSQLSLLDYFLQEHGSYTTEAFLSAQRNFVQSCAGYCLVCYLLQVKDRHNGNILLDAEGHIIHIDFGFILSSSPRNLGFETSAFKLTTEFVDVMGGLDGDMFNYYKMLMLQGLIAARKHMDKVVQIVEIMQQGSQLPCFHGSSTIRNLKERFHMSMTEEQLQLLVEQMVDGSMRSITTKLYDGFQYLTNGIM
SMILES,EC50 (Cryptosporidium parvum) [µM],pIC50 (C. parvum PI(4)K),pIC50 (H.s. PI(4)K)
"CCOC(=O)OC(C)OC(=O)c1cc(N(C)C(=O)c2ccn3ncc(-c4ccc(C(N)=O)cc4)c3c2)ccc1Cl (racemic) [Example 1.14, rac-1-((Ethoxycarbonyl)oxy)ethyl 5-(3-(4-carbamoylphenyl)-N-methylpyrazolo[1,5-a]pyridine-5-carboxamido)-2-chlorobenzoate]",> 1,6.00 to 7.00,< 6.00
"CN(C(=O)c1ccn2ncc(-c3ccc(C(N)=O)cc3)c2c1)c1ccc(Cl)c(C(=O)OCC2CCCO2)c1 (racemic) [Example 1.15, rac-(Tetrahydrofuran-2-yl)methyl 5-(3-(4-carbamoylphenyl)-N-methylpyrazolo[1,5-a]pyridine-5-carboxamido)-2-chlorobenzoate]",0.1 to 1,> 7.00,
"CN(C(=O)c1ccn2ncc(-c3ccc(C(N)=O)cc3)c2c1)c1ccc(Cl)c(C(=O)OC(C)(C)C)c1 [Example 1.02, tert-Butyl 5-(3-(4-carbamoylphenyl)-N-methylpyrazolo[1,5-a]pyridine-5-carboxamido)-2-chlorobenzoate]",0.1 to 1,> 7.00,
"CSCCOC(=O)c1cc(N(C)C(=O)c2ccn3ncc(-c4ccc(C(N)=O)cc4)c3c2)ccc1Cl [Example 1.04, 2-(Methylthio)ethyl 5-(3-(4-carbamoylphenyl)-N-methylpyrazolo[1,5-a]pyridine-5-carboxamido)-2-chlorobenzoate]",> 1,> 7.00,
"CC(C)COC(=O)c1cc(N(C)C(=O)c2ccn3ncc(-c4ccc(C(N)=O)cc4)c3c2)ccc1Cl [Example 1.05, Isobutyl 5-(3-(4-carbamoylphenyl)-N-methylpyrazolo[1,5-a]pyridine-5-carboxamido)-2-chlorobenzoate]",0.1 to 1,> 7.00,
"COC(=O)COC(=O)c1cc(N(C)C(=O)c2ccn3ncc(-c4ccc(C(N)=O)cc4)c3c2)ccc1Cl [Example 1.06, 2-Methoxy-2-oxoethyl 5-(3-(4-carbamoylphenyl)-N-methylpyrazolo[1,5-a]pyridine-5-carboxamido)-2-chlorobenzoate]",> 1,> 7.00,
"CN(C(=O)c1ccn2ncc(-c3ccc(C(N)=O)cc3)c2c1)c1ccc(Cl)c(C(=O)OCc2cncs2)c1 [Example 1.07, Thiazol-5-ylmethyl 5-(3-(4-carbamoylphenyl)-N-methylpyrazolo[1,5-a]pyridine-5-carboxamido)-2-chlorobenzoate]",0.1 to 1,> 7.00,
"CCOC(=O)c1cc(N(C)C(=O)c2ccn3ncc(-c4ccc(C(N)=O)cc4)c3c2)ccc1Cl [Example 1.09, Ethyl 5-(3-(4-carbamoylphenyl)-N-methylpyrazolo[1,5-a]pyridine-5-carboxamido)-2-chlorobenzoate]",0.1 to 1,> 7.00,
"CN(C(=O)c1ccn2ncc(-c3ccc(C(N)=O)cc3)c2c1)c1ccc(Cl)c(C(=O)OCC(F)(F)F)c1 [Example 1.10, 2,2,2-Trifluoroethyl 5-(3-(4-carbamoylphenyl)-N-methylpyrazolo[1,5-a]pyridine-5-carboxamido)-2-chlorobenzoate]",> 1,> 7.00,
"COCCOC(=O)c1cc(N(C)C(=O)c2ccn3ncc(-c4ccc(C(N)=O)cc4)c3c2)ccc1Cl [Example 1.11, 2-Methoxyethyl 5-(3-(4-carbamoylphenyl)-N-methylpyrazolo[1,5-a]pyridine-5-carboxamido)-2-chlorobenzoate]",0.1 to 1,> 7.00,
"CN(C)C(=O)COC(=O)c1cc(N(C)C(=O)c2ccn3ncc(-c4ccc(C(N)=O)cc4)c3c2)ccc1Cl [Example 1.12, 2-(Dimethylamino)-2-oxoethyl 5-(3-(4-carbamoylphenyl)-N-methylpyrazolo[1,5-a]pyridine-5-carboxamido)-2-chlorobenzoate]",0.1 to 1,> 7.00,
"CC(C)OC(=O)c1cc(N(C)C(=O)c2ccn3ncc(-c4ccc(C(N)=O)cc4)c3c2)ccc1Cl [Example 1.13, Isopropyl 5-(3-(4-carbamoylphenyl)-N-methylpyrazolo[1,5-a]pyridine-5-carboxamido)-2-chlorobenzoate]",0.1 to 1,> 7.00,
"CNC(=O)c1ccc(-c2cnn3ccc(C(=O)N(C)c4ccc(Cl)c(C(=O)OC(C)(C)C)c4)cc23)cc1 [Example 1.17, t-Butyl 2-chloro-5-(N-methyl-3-(4-(methylcarbamoyl)phenyl)pyrazolo[1,5-a]pyrdine-5-carboxamido)benzoate]",< 0.1,> 7.00,
"CNC(=O)c1ccc(-c2cnn3ccc(C(=O)N(C)c4ccc(OC(F)(F)F)c(C(=O)OC)c4)cc23)cc1 [Example 1.26, Methyl 5-(N-methyl-3-(4-(methylcarbamoyl)phenyl)pyrazolo[1,5-a]pyridine-5-carboxamido)-2-(trifluoromethoxy)benzoate]",0.1 to 1,> 7.00,
